According to the METLIN SMRT retention time set (Domingo-Almenara et al. 2019):

Assay: gradient 5% acetonitrile 3 min, to 50% in 2 min, to 85% in 15 min, held 3 min, 100 µL/min
Conditions: column: Zorbax Extend-C18 2.1 x 50 mm; eluents: water / acetonitrile, 0.1% formic acid
Outline: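 Pure standards were run in mixtures of ~100 molecules by HPLC coupled to a quadrupole time-of-flight mass spectrometer. The column was a Zorbax Extend-C18 (2.1 × 50 mm, 1.8 μm) at 100 μL/min, with water and acetonitrile each containing 0.1% formic acid, in positive and negative ionization mode. Dead and dwell volumes were 40 μL and 900 μL. Retention time was taken from computationally picked adduct peaks, each manually inspected, with data collected over 3 months.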

Structure (SMILES)	RP-LC retention time [s]
O=C(CCc1nc(-c2ccc(N3CCCCCC3)cc2)no1)N1CCCC1	1080
COc1ccccc1N1CCNCC1	627
COc1cc(Cl)c(C)cc1NC(=O)CSc1ccc(N2CCCC(C(=O)NC3CC3)C2)nn1 (configuration not stated)	774
COc1ccc(N2CC(c3nc(-c4ccc(C)cc4)no3)CC2=O)c(OC)c1 (configuration not stated)	888
O=C(NCCc1c[nH]c2ccccc12)c1cc2cccnc2n(Cc2ccc(F)cc2)c1=O	1090
COC(=O)c1cc(S(=O)(=O)N2CCCC2C(=O)Nc2cccc3c2CCCC3)cn1C (configuration not stated)	1020
Cc1nc(-c2csc(S(=O)(=O)N3CCCC(C(=O)Nc4ccc(F)cc4F)C3)c2)no1 (configuration not stated)	952
COc1ccc(Cl)cc1NC(=O)c1c(N)c(C(=O)c2cccs2)n2ccccc12	1140
CCc1noc(-c2ccnc(-n3cnc(C(=O)NC4CCCC4)c3)c2)n1	839
NC(=O)C1CCN(C(=O)COCc2cc(-c3cccs3)on2)CC1	640
CC1CCCN(CCCNC(=O)CC2CCN(C(=O)C3CCCCC3)CC2)C1 (configuration not stated)	604
COc1ccc(CNC(=O)C2(C)CCN(C(=O)Nc3cccc(SC)c3)CC2)cc1	845
CN(C)Cc1cc(C(F)(F)F)ccc1C(O)(c1ccccc1)c1ccccc1	883
Cc1ccc(S(=O)(=O)N2CCC(c3nc(-c4cccc(-c5ccn[nH]5)c4)no3)CC2)cc1	971
COc1ccc(NC(=O)c2nnc(COCC(=O)NCCc3c[nH]c4ccc(C)cc34)s2)cc1	892
CCC(=O)N1CCc2cc(C)c(S(=O)(=O)NC(C)C)cc21	796
CN(C)c1cccc(C(=O)NC2CCN(c3ccc(F)cc3)C2=O)c1 (configuration not stated)	705
Cc1nc(-c2cccc(F)c2)sc1CCNC(=O)C(=O)Nc1ccccc1Cl	1160
O=C(c1cccs1)N1CCCN(c2ccc(=O)n(-c3ccccc3)n2)CC1	700
NC(=O)[C@@H]1C[C@H](Oc2ccccc2)CN1C1CCC1	571
CCc1noc(CC2CCOC3(CCN(S(=O)(=O)c4ccc(Cl)cc4)CC3)C2)n1 (configuration not stated)	1070
CC1CN([C@H]2C[C@@H](N=[N+]=[N-])[C@@H](CO)O2)C(=O)NC1=O (some centres not stated)	644
CS(=O)(=O)c1ccc(-c2cccc(NS(=O)(=O)c3ccc4c(c3)CCCC4)c2)nn1	855

Structure (SMILES)	RP-LC retention time [s]
Cc1ccc(S(=O)(=O)N2CCC(c3nc(C(=O)N4CCOCC4)c(C)o3)CC2)cc1C	870
NS(=O)(=O)c1ccc(NC(=O)c2cnc3ccccn3c2=O)cc1	610
Cn1c(=O)n([C@H]2CCCN(C(=O)Nc3ccc(F)cc3F)C2)c2ncccc21	752
CCn1cc(CCN2CCN(S(=O)(=O)c3cccc(C#N)c3)CC2)c2cccnc21	635
O=C(Cn1cnc2c(nc3n2CCCCC3)c1=O)NCc1ccco1	618
CC(C)C(=O)Nc1ccc(-n2cnc(C(=O)N3CCSCC3)c2)nc1	679
O=C(NCc1ccc(F)cc1F)c1ccc(NC(=O)C2CC2)cc1N1CCOCC1	798
CCCC[C@H]1C(=O)O[C@H](C)[C@H](NC(=O)c2cccc(NC=O)c2OC)C(=O)O[C@@H](C)[C@@H]1OC(=O)CC(C)C	1190
CN1C(=O)[C@]2(CO)SSC1(Cc1cn([C@]34C[C@@]56SS[C@@](CO)(C(=O)N5[C@H]3Nc3ccccc34)N(C)C6=O)c3ccccc13)C(=O)N2C	898
COc1ccc(NC(=O)C2CCCN(c3cnc4nccnc4c3)C2)cc1F (configuration not stated)	726
CN1C(=O)c2cc(C(=O)NCCC3=CCCCC3)nn2CC1(C)C(=O)NCc1ccccc1 (configuration not stated)	853
Cc1[nH]c(C)c(S(=O)(=O)N2CCC(C(=O)Nc3cc(F)ccc3F)CC2)c1C(=O)N1CCCC1	644
Cc1ccc2c(C(=O)NCc3ccc(F)cc3F)cc(NC(=O)C(C)C)cc2n1	660
COc1ccc(OC)c(C(C)NC(=O)C2CCCN(c3nccnc3Sc3ccc(C)cc3)C2)c1 (configuration not stated)	1150
Cc1ccc2nc(-c3ccc(N4CCOCC4)cc3)c(Nc3ccccc3C)n2c1	755
O=C(Nc1ccc(Cl)cc1)C1CC(=O)N(CCc2c[nH]c3ccc(F)cc23)C1 (configuration not stated)	857
C[C@H]1CN(C(=O)C2(c3ccccc3)CC2)C[C@@H]1c1nc(-c2cccnc2)no1	827
OC[C@H]1O[C@@H](n2cnc3c(N[C@H]4CCC[C@@H]4O)ncnc32)[C@@H](O)C1O (some centres not stated)	590
O=S(=O)(c1ccc2c(c1)-c1oncc1CO2)N1CCN(c2ccc(F)cc2)CC1	1040
Cn1cc(-c2nc(C(=O)Nc3cccc(C#N)c3)cs2)c2cccnc21	946
O=C(c1cccs1)N1[C@H]2CC[C@@H]1c1cnc(-c3ccccc3)nc1C2	907
CCc1nncn1C1CCN(C(=O)c2cc(C)cc(C)c2)CC1	655

More lines, now with the values ahead:

RP-LC retention time [s]	Structure (SMILES)
936	COc1ccc(-c2nnc(-c3nc(N4CCC5(CC4)OCCO5)c4ccccc4n3)o2)cc1
800	CCc1cccc(NC(=O)Cn2ccc3sccc3c2=O)c1
634	CCNC(=O)c1n[nH]c2c1CN(C(=O)c1cc(F)cc(F)c1)CC2
552	CCC(CO)NCC(O)COCc1ccc(Cl)cc1 (configuration not stated)
703	Cc1ccc(NC(=O)Cn2cnc3nc(N4CCCC(C(=O)NC5CC5)C4)sc3c2=O)cc1F (configuration not stated)
765	Cc1noc(C)c1S(=O)(=O)N1C[C@@H](F)C[C@H]1C(=O)N1CCCCC1
1000	COc1nc2ccccc2nc1N1CCCC(C(=O)NC2CCCC2)C1 (configuration not stated)
563	CCN1CCN(Cc2nc3cc(NC(=O)C(C)C)ccc3n2C(C)C)CC1
869	O=C(c1ccc(F)cc1)N1CCN(c2ccc(=O)n(-c3cccc(Cl)c3)n2)CC1
848	Cc1ccc(N2CC(C(=O)Nc3cc(-c4nc(C)cs4)sc3C)CC2=O)cc1 (configuration not stated)
564	Cc1cc(C)n(-c2ccc(C(=O)NCc3nc4ccccc4[nH]3)nn2)n1
1230	Cc1ccc(S(=O)(=O)N2CCCC2c2nc(-c3ccc(Cl)cc3)no2)cc1F (configuration not stated)
1020	COc1cccc(-c2nnc(Cc3nc(-c4ccccc4Cl)no3)o2)c1
1230	Cc1nn(-c2nc3ccccc3[nH]2)c2c1C(=O)CC(c1ccc(C(C)C)cc1)C2 (configuration not stated)
804	CCOc1cccc(CNC(=O)c2c(C)sc3ccn(C)c(=O)c23)c1
969	Cc1ccc(S(=O)(=O)N2C[C@@H]3C[C@H](NC(=O)c4ccccc4)[C@H]2C3)cc1Cl
644	Cc1cccc(OCCc2noc(C3CNC3)n2)c1
1090	COc1ccc(CN2C=C(C(=O)OCc3nc(-c4cccs4)no3)C(C)=NS2(=O)=O)cc1
971	COC(=O)c1cccc(C(=O)Nc2ccc(Cl)cc2C)n1
1150	O=S(=O)(Cc1ccccc1)N1CCc2nc(-c3ccc(Cl)cc3)ncc2C1
1010	CCOC(=O)c1noc2nc(C)nc(Nc3ccccc3)c12

RP-LC retention time [s]	Structure (SMILES)
1260	CC1CCC(NC(=O)c2cc3sccc3n2Cc2ccc(F)cc2)CC1 (configuration not stated)
664	CCS(=O)(=O)N1CC(n2cc(C(=O)NCC3CC3)nn2)C1
862	CC1=C(c2ccc(Cl)cc2)S(=O)(=O)N=C1N1CCCN(C(=O)c2ccccc2)CC1
684	COCCN1C(=O)Cc2ccccc2C1C(=O)NCc1ccccc1 (configuration not stated)
786	Cc1ccc(-c2ncccc2CNS(=O)(=O)c2ccc(Br)s2)cc1
798	[O-]/[N+](=C\c1ccccc1)CC1(O)CCCCC1
596	Cn1ccc2cc(CCC(=O)NCc3ccncc3)ccc21
743	CC(C)CNC(=O)CCC(=O)N1c2ccccc2NC2=C(C(=O)CC(C)(C)C2)C1c1ccco1 (configuration not stated)
881	Cc1noc(C)c1-c1ccc(S(=O)(=O)Nc2ccccc2F)cc1
979	O=C(NCCc1c[nH]c2ccccc12)c1ccc(N2CCCC2)c(S(=O)(=O)N2CCCC2)c1
774	CC(C)c1c(C2CCN(C(=O)c3cc(F)ccc3F)CC2)noc1N
959	CN(CCc1noc(-c2ccccc2)n1)C(=O)CSc1ccccc1
690	ONC(=NCc1ccccc1)c1ccccc1
1290	Cn1nccc1-c1cccc(-c2noc(/C=C/c3ccccc3Cl)n2)c1
595	CC(=O)N(C)CCc1noc(C2CN(C(=O)c3c(C)noc3C)C2)n1
762	O=C(c1ccc2c(c1)OCO2)N1CCCC2(C1)NC(=O)N(Cc1ccccc1)C2=O (configuration not stated)
668	CSc1cccc(NC(=O)Cn2cnc3c(-c4ccncc4)nsc3c2=O)c1
690	Cc1ccc2nc(-c3ccc(N4CCOCC4)cc3)c(Nc3ccc4c(c3)OCO4)n2c1
658	COc1ccc(CC(=O)N2CCC(n3cnnc3C3CC3)CC2)cc1Cl
783	O=C1CCc2cc(NS(=O)(=O)Cc3ccccc3Cl)ccc2N1
646	Cc1noc(-c2ccc(=O)n(C(C)C(=O)NCc3cccs3)c2)n1 (configuration not stated)
